Experiments:
Experiment in all cases: relative viability (nuclei count vs DMSO), 5 days (fraction); higher = more cells survive
[1] = compound: Cc1ccc(C(=O)N(CCCN)[C@@H](c2nc3cc(Cl)ccc3c(=O)n2Cc2ccccc2)C(C)C)cc1 [Ispinesib] + NC(=O)Nc1cc(-c2cccc(F)c2)sc1C(=O)N[C@H]1CCCNC1 [AZD7762] (partner 0.2 µM)
Method in brief: (§1)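 Lung cancer cell lines in 1536-well plates got either a single drug or a fixed anchor-drug dose together with five library-drug doses (not always all listed) in √10 steps, by pin tool, on the day after seeding. Nuclei were counted after 5 days, and relative viability is the treated-to-vehicle ratio of nuclei counts. Values are medians of duplicate plates.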

[2] = compound: C[C@]1(O)C[C@@H](c2nc(-c3ccc4ccc(-c5ccccc5)nc4c3)c3c(N)nccn32)C1 [Linsitinib] + CS(=O)(=O)CCNCc1ccc(-c2ccc3ncnc(Nc4ccc(OCc5cccc(F)c5)c(Cl)c4)c3c2)o1 [Lapatinib] (partner 2 µM)
Method in brief: as §1

[3] = compound: Cc1ccc(C(=O)N(CCCN)[C@@H](c2nc3cc(Cl)ccc3c(=O)n2Cc2ccccc2)C(C)C)cc1 [Ispinesib] + C[C@@H](Oc1cc(-c2cnn(C3CCNCC3)c2)cnc1N)c1c(Cl)ccc(F)c1Cl [Crizotinib] (partner 1 µM)
Method in brief: as §1

[4] = compound: Cc1ccc(C(=O)N(CCCN)[C@@H](c2nc3cc(Cl)ccc3c(=O)n2Cc2ccccc2)C(C)C)cc1 [Ispinesib] + CC1(C)CCC(c2ccc(Cl)cc2)=C(CN2CCN(c3ccc(C(=O)NS(=O)(=O)c4ccc(N[C@H](CCN5CCOCC5)CSc5ccccc5)c(S(=O)(=O)C(F)(F)F)c4)cc3)CC2)C1 [Navitoclax] (partner 0.5 µM)
Method in brief: as §1

Cell Line | relative viability ([1]; first compound 0.001 µM) | relative viability ([1]; first compound 0.003162 µM) | relative viability ([1]; first compound 0.01 µM) | relative viability ([1]; first compound 0.03162 µM) | relative viability ([1]; first compound 0.1 µM) | relative viability ([2]; first compound 0.01 µM) | relative viability ([2]; first compound 0.03162 µM) | relative viability ([2]; first compound 0.1 µM) | relative viability ([2]; first compound 0.3162 µM) | relative viability ([2]; first compound 1 µM) | relative viability ([3]; first compound 0.001 µM) | relative viability ([3]; first compound 0.003162 µM) | relative viability ([3]; first compound 0.01 µM) | relative viability ([3]; first compound 0.03162 µM) | relative viability ([3]; first compound 0.1 µM) | relative viability ([4]; first compound 0.001 µM) | relative viability ([4]; first compound 0.003162 µM) | relative viability ([4]; first compound 0.01 µM) | relative viability ([4]; first compound 0.03162 µM) | relative viability ([4]; first compound 0.1 µM)
201T | 0.662 | 0.521 | 0.643 | 0.65 | 0.309 | 0.967 | 1.06 | 1.07 | 0.789 | 0.978 | 1.05 | 1.09 | 1.14 | 1.04 | 1.01 | 1.23 | 1.17 | 1.19 | 1.17 | 1.08
A549 | – | – | – | – | – | 0.981 | 1.02 | 0.816 | 0.783 | 0.443 | 0.88 | 0.903 | 0.849 | 0.0553 | 0.181 | 1.34 | 1.16 | 1.18 | 0.0508 | 0.0539
A-427 | 0.853 | 0.817 | 0.976 | 0.462 | 0.32 | 1.02 | 0.723 | 1.06 | – | 1.08 | 0.886 | 1.23 | 0.968 | 0.887 | 0.369 | 0.938 | 0.995 | 1.06 | 0.827 | 0.903
ABC-1 | 0.981 | 1.21 | 0.852 | 0.395 | 0.301 | 1.13 | 1.5 | 1.32 | 1.34 | 1.21 | 1.1 | 1.15 | 0.908 | 0.248 | 0.334 | – | – | – | – | –
BEN | 0.745 | 0.85 | 0.678 | 0.472 | 0.347 | 0.84 | 0.685 | 0.563 | – | 0.58 | 1.08 | 1.01 | 1.04 | 0.507 | 0.431 | 0.0635 | 0.0753 | 0.0591 | 0.0599 | 0.053
CAL-12T | 0.707 | 0.74 | 0.594 | 0.52 | 0.212 | 0.705 | 0.613 | 0.655 | 0.576 | 0.518 | 0.688 | 0.731 | 0.394 | 0.229 | 0.282 | 1.28 | 1.4 | 1.47 | 0.537 | 0.177
COR-L23 | – | – | – | – | – | 0.798 | 0.916 | 1.16 | 0.825 | 0.944 | 0.68 | 0.729 | 0.882 | 0.311 | 0.248 | 1.06 | 1.15 | 1.34 | 0.192 | 0.124
COR-L 105 | – | – | – | – | – | 0.452 | 0.35 | 0.357 | 0.325 | 0.296 | 0.721 | 0.759 | 0.47 | 0.263 | 0.411 | 0.722 | 0.824 | 0.676 | 0.464 | 0.345
Calu-6 | – | – | – | – | – | 0.98 | 0.949 | 1.18 | 0.985 | 0.947 | 0.992 | 0.618 | 0.527 | 0.169 | 0.265 | 0.764 | 0.344 | 0.173 | 0.0922 | 0.12
ChaGo-K-1 | 1.01 | 0.874 | 0.879 | 0.903 | 0.245 | – | – | – | – | – | 1.26 | 1.3 | 1.26 | 0.841 | 0.894 | 1.11 | 1.45 | 0.995 | 0.732 | 0.335
EBC-1 | – | – | – | – | – | 0.259 | 0.26 | 0.248 | 0.244 | 0.2 | 0.189 | 0.194 | 0.194 | 0.167 | 0.152 | 0.349 | 0.43 | 0.246 | 0.189 | 0.223
EKVX | 0.777 | – | 0.767 | 0.464 | 0.303 | 0.212 | 0.262 | 0.231 | 0.23 | 0.161 | 1.19 | 1.34 | 1.06 | 0.689 | 0.196 | 1.07 | 0.964 | 1.06 | 0.75 | 0.22
EMC-BAC-2 | 1.22 | 1.23 | 1.34 | 0.704 | 0.599 | 0.914 | 0.893 | 0.806 | 0.686 | 0.694 | 0.914 | 0.847 | 0.756 | 0.751 | 0.481 | 1.2 | 1.35 | 1.28 | 1.08 | 0.758
EPLC-272H | 0.226 | 0.253 | 0.21 | 0.16 | 0.0883 | 0.977 | 0.948 | 0.999 | – | 0.736 | 1.06 | 0.842 | 1.23 | 0.883 | 0.805 | 1.24 | 1.21 | 1.25 | 0.784 | 1.02
H3255 | 0.94 | 1.06 | 0.89 | 0.623 | 0.311 | 0.247 | 0.284 | 0.19 | 0.245 | 0.206 | 1.09 | 0.821 | 0.92 | 0.58 | 0.327 | 0.562 | 0.541 | 0.46 | 0.344 | 0.217
HARA | 0.501 | 0.345 | 0.365 | 0.308 | 0.227 | 0.598 | 0.746 | 0.739 | 0.671 | 0.329 | 1.33 | 1.18 | 1.24 | 1.06 | 0.188 | 1.28 | 1.17 | 1.36 | 1.17 | 0.12
HCC-15 | 1.26 | 1.33 | 1.34 | 0.902 | 0.154 | 0.919 | 0.807 | 0.883 | 0.2 | 0.612 | 0.892 | 0.976 | 0.97 | 0.489 | 0.15 | 0.792 | 0.82 | 0.848 | 0.665 | 0.401
HCC-44 | 0.983 | 1.1 | 1.02 | 1.03 | 0.756 | 1.02 | 0.859 | 0.983 | 0.357 | 0.63 | 0.796 | 0.905 | 0.951 | 0.776 | 0.121 | 1.02 | 1 | 1.2 | 1.05 | 0.265

Source: the supplement of paper PMC10307832
